Measured values published in patent publication US6288089A, “Use of kinase inhibitors for treating neurodegenerative diseases” (priority 1999, dated 2001).
“Also recorded” adds a separate entry of the source.

Legend:
[1] = test system: TH+ dopamine neurons of E15 rat mesencephalic primary cultures; format: cell-based; conditions: 20 h serum withdrawal
[2] = test system: TH+ dopamine neurons of E15 rat ventral mesencephalic cultures; conditions: 10 μM; 18 h serum-free
From the text: To make this determination, select rat embryonic mesencephalic cultures were double stained for both the TH dopaminergic cell marker and for nuclear characteristics indicative of apoptosis. […] Following 18 hrs under these conditions, cultures were immunostained using anti-rat TH primary antibody followed by a fluorescent (FITC-conjugated) secondary antibody. Subsequently, cells were stained with a fluorescent Hoechst 33258 DNA dye. Only those cells containing nuclear chromatin condensations (pyknotic nuclei) were scored as apoptotic. Cells containing intact nuclei -were counted as healthy. In the entire experiment, a total of 5066 TH-immunoreactive neurons were examined for nuclear chromatin condensation. Four sample groups were tested:
In this Example, experiments to study tyrosine hydroxylase-positive apoptotic cells were conducted. E15 rat ventral mesencephalic cultures were grown in F12 medium containing 5% human placental serum for 24 hrs. […] Next, cultures were washed with PBS and fixed for 2 min in 1% paraformaldehyde followed by further fixation in 70% ethanol in glycine buffer at -20° C. for 10 min. […] Cells containing intact nuclei were counted as healthy. […] In the entire experiment, total of 5066 TH-immunoreactive neurons were examined for the nuclear chromatin condensation under a fluorescence microscope.

[3] = test system: transplanted embryonic rat ventral mesencephalic dopamine neurons; conditions: tissue preincubated 2 h with 10 μM; six weeks after transplantation
Method: Following the incubation, the tissue was immediately transplanted into the denervated rat striatum. Six weeks after transplantation, TH+ cells within the striatum were visualized following sacrifice of the animals, and cryotome sectioning and immunostaining for tyrosine hydroxylase (TH) using a polyclonal anti-rat TH primary antibody.
For the transplantation, one-half embryonic day 15 (E15) rat ventral mesencephalon was extruded into a strand using a 0.2 mm in diameter glass cannula made by heating a glass luer adaptor (Kimble-Kontes, Cat# 663500-0444). […] Following incubation, the tissue was immediately transplanted into the denervated rat striatum. The tissue strand was drawn up into a 24 g sterile stainless steel cannula attached to a microliter syringe and stereotaxically transplanted at the following coordinates (AP 0.0 mm form bregma, LAT3.0 mm form the midline, VD-3.5 to -7.5 mm below the dura) in 4.0 μl over 4 min.
Visualization of TH+ cells: Six weeks after transplantation, all animals were sacrificed, and their brains perfused with heparinized-saline followed by 4% paraformaldehyde. […] All TH-immunoreactive neurons were counted in every third section under a microscope. Abercrombie's correction was used to estimate the total number of TH+ neurons surviving in each transplant.

SMILES	surviving TH+ neurons/cm^2 ([1]; 1 μM inhibitor, serum control […]±30, no serum 283±32) [TH+ neurons/cm^2]	concentration at which the survival effect on TH+ neurons reached its maximum ([1]; 0.1-10 μM tested) [µM]	anti-apoptotic effect in dopamine neurons after serum withdrawal [2]	number of surviving dopamine neurons (TH+ cells) compared to sham-pretreated transplants [3]
Oc1ccc(-c2nc(-c3ccc(F)cc3)c(-c3ccncc3)[nH]2)cc1 [SB 202190]	537±37	1	–	–
C[S+]([O-])c1ccc(-c2nc(-c3ccc(F)cc3)c(-c3ccncc3)[nH]2)cc1 (stereo not shown) [SB 203580]	–	–	significant (p<0.001), although less dramatic than that of PD169316; also recorded: significant (p<0.001) although less dramatic than that of PD169316	intermediate level
